Experimental data as given in patent US6428812B1, “Process for producing granules containing angiotensin-converting enzyme inhibiting peptides” (Calpis Co., Ltd., priority 1999, dated 2002).

Biological target: angiotensin-converting enzyme (ACE) (Homo sapiens, UniProt P12821)
Test: ACE inhibitory activity
Type: biochemical
Settings: ratio IPP versus VPP

Chain of angiotensin-converting enzyme (ACE) (P12821 30-1306, species assumed): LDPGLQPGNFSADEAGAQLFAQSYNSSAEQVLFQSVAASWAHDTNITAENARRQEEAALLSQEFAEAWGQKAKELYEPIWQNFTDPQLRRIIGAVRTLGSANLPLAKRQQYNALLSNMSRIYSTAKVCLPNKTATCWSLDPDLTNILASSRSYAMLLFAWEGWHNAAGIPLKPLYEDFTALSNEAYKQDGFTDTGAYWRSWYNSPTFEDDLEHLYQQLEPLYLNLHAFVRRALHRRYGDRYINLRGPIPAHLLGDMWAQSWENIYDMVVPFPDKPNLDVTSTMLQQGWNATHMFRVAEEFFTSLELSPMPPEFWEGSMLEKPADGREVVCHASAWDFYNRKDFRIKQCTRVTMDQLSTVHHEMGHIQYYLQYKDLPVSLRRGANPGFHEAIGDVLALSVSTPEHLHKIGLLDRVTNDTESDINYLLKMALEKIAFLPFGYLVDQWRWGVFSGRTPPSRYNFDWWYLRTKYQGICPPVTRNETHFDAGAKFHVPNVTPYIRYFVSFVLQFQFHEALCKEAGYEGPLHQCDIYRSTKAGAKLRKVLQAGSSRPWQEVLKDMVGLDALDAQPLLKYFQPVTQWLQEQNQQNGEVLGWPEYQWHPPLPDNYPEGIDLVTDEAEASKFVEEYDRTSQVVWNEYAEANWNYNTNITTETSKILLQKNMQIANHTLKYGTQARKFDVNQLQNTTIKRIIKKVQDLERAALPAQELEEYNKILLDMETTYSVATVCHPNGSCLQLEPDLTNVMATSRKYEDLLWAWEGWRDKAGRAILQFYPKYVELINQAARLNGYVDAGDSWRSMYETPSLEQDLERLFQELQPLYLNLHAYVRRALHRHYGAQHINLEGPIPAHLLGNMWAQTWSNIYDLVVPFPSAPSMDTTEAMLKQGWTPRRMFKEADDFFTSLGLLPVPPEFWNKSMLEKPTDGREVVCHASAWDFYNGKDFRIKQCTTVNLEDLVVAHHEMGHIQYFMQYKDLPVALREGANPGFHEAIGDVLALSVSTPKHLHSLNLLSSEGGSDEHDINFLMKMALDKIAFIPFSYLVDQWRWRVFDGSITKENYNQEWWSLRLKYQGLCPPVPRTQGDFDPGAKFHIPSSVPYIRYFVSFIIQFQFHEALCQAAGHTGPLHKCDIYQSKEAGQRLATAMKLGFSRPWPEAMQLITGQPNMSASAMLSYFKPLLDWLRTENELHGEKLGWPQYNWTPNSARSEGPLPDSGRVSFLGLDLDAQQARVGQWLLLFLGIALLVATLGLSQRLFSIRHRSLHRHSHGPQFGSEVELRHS

ACEI activity of IPP relative to VPP: 1.7 times
Substance: Ile-Pro-Pro [IPP]
